Results published in patent publication US9102665B2, “Cysteinyl leukotriene antagonists” (Sun Pharma Advanced Research Company Ltd., priority 2011, dated 2015).

Target: T1, Leukotriene, Cysteinyl CysLT1 (Cavia porcellus, UniProt Q2NNR5)
T1 construct: from tissue; host or cells: guinea pig lung membrane
T1 sequence (Q2NNR5 1-340): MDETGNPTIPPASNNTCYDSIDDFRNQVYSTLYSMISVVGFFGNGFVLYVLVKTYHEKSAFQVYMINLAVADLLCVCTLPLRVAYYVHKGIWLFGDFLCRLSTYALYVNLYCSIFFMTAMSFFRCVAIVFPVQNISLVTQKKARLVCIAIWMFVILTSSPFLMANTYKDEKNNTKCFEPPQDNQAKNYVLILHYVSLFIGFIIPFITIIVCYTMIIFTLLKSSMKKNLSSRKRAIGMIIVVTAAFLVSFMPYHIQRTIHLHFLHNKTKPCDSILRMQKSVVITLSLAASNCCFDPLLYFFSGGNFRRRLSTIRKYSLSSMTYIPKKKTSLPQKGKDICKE
Experiment: receptor radio-ligand-binding assay (Tritiated LTD4 as the ligand), Guinea pig lung membrane
Conditions: 0.5 h, 0.2 nM 3H LTD4, Guinea pig lung membrane; for inhibition at 0.001 µM: 1 nM test compound, read-out: % Inhbition (in nM) 1; for inhibition at 0.003 µM: 3 nM test compound, read-out: % Inhbition (in nM) 3; for inhibition at 0.01 µM: 10 nM test compound, read-out: % Inhbition (in nM) 10
Experimental: The primary in-vitro biological screening for the compounds carried-out involving receptor radio-ligand-binding assay (Tritiated LTD4 as the ligand) by known methods described in literature [a). Mong et al. European Journal of Pharmacology (102); 1984 1-11b). Jones et al; Journal of Physiology & Pharmacology (73); 1994, 191-201 c). MDS Pharma Services: 250460 Leukotriene, Cysteinyl CysLT1]. Accordingly, Guinea pig lung membrane (100 ug) is incubated with 0.2 nM 3H LTD4 in presence of Reference Standard/Test item/Vehicle Control. Non Specific Binding is determined by incubating the membrane with 0.2 nM 3H LTD4 in presence of 1 uM of unlabeled LTD4. The samples are incubated at 26° C. for 30 minutes and are vacuum filtered on a membrane to separate the bound and free radioligand. The membrane is counted in a liquid scintillation counter to calculate the bound radioactivity. Specific Binding in Vehicle treated and Reference Standard/Test item treated set is compared to evaluate the % Inhibition values. Some of the compounds have shown >50% inhibition in the presence of ≦3 nano-molar concentration of the compounds of present invention as shown in the following table.

Compound | inhibition at 0.001 µM [%] | inhibition at 0.003 µM [%] | inhibition at 0.01 µM [%]
CC1(C)COC(CCc2ccccc2C(=O)O)(c2cccc(/C=C/c3ccc4ccc(Cl)cc4n3)c2)OC1 [Ib.26] | 34 | 53 | 56
CN(C(=O)c1ccco1)C(CCc1ccccc1C(=O)O)c1cccc(/C=C/c2ccc3ccc(Cl)cc3n2)c1 (stereo not drawn) [Ia.76, 2-{3-{3-[(E)-2-(7-Chloro-quinolin-2-yl)-vinyl]-phenyl}-3-[(furan-2-carbonyl)-methyl-amino]-propyl}-benzoic acid] | 37 | 61 | 67
CCOC(COc1ccc(OC)cc1C(=O)O)c1cccc(C#Cc2ccc3ccc(Cl)cc3n2)c1 (stereo not drawn) [Ia.199, 2-{2-[3-(7-Chloro-quinolin-2-ylethynyl)-phenyl]-2-ethoxy-ethoxy}-5-methoxy-benzoic acid] | 76 | 88 | 97
CCOC(COc1ccc(OC)cc1C(=O)NS(C)(=O)=O)c1cccc(/C=C/c2ccc3ccc(Cl)cc3n2)c1 (stereo not drawn) [Ia.157, N-[2-(2-{3-[(E)-2-(7-Chloro-quinolin-2-yl)-vinyl]-phenyl}-2-ethoxy-ethoxy)-5-methoxybenzoyl]-methanesulfonamide] | 62 | 72 | 80
C#CCO[C@H](COc1ccc(OC)cc1C(=O)O)c1cccc(/C=C/c2ccc3ccc(Cl)cc3n2)c1 [Ia.185, 2-((S)-2-{3-[(E)-2-(7-Chloro-quinolin-2-yl)-vinyl]-phenyl}-2-prop-2-ynyloxy-ethoxy)-5-methoxy-benzoic acid] | 57 | 60 | 84
CCOC(CSc1ncccc1C(=O)O)c1cccc(/C=C/c2ccc3ccc(Cl)cc3n2)c1 (stereo not drawn) [Ia.205, 2-(2-{3-[(E)-2-(7-Chloro-quinolin-2-yl)-vinyl]-phenyl}-2-ethoxy-ethylsulfanyl)-nicotinic acid] | 46 | 49 | 70
CS(=O)(=O)NC(CCc1ccccc1C(=O)O)c1cccc(/C=C/c2ccc3ccc(Cl)cc3n2)c1 (stereo not drawn) [Ia.11, 2-(3-{3-[(E)-2-(7-Chloro-quinolin-2-yl)-vinyl]phenyl}-3-methanesulfonylamino-propyl)-benzoic acid] | 46 | 56 | 71
CCN(CC)C(=O)c1ccccc1CCC(NC(=O)c1ccccc1C(=O)OC)c1cccc(/C=C/c2ccc3ccc(Cl)cc3n2)c1 (stereo not drawn) [Ia.48, N-[1-{3-[(E)-2-(7-Chloro-quinolin-2-yl)-vinyl]-phenyl}-3-(2-diethylcarbamoyl-phenyl)-propyl]-phthalamic acid methyl ester] | 35 | 56 | 65
O=C(O)c1ccccc1CCC(NC(=O)C(F)(F)F)c1cccc(/C=C/c2ccc3ccc(Cl)cc3n2)c1 (stereo not drawn) [Ia.12, 2-[3-{3-[(E)-2-(7-Chloro-quinolin-2-yl)-vinyl]-phenyl}-3-(2,2,2-trifluoro-acetylamino)-propyl]-benzoic acid] | 5 | 35 | 56
O=C(N[C@H](CCc1ccccc1C(=O)O)c1cccc(/C=C/c2ccc3ccc(Cl)cc3n2)c1)c1ccco1 [Ia.54, 2-{(R)-3-{3-[(E)-2-(7-Chloro-quinolin-2-yl)-vinyl]-phenyl}-3-[(furan-2-carbonyl)-amino]-propyl}-benzoic acid] | 50 | 60 | 74
C#CCOC(COc1ccccc1C(=O)O)c1cccc(/C=C/c2ccc3ccc(Cl)cc3n2)c1 (stereo not drawn) [Ia.127, 2-(2-{3-[(E)-2-(7-Chloro-quinolin-2-yl)-vinyl]-phenyl}-2-prop-2-ynyloxy-ethoxy)-benzoic acid] | 50 | 69 | 73
CCN(CC)C(=O)c1ccccc1CCC(NC(=O)c1ccccc1C(=O)O)c1cccc(/C=C/c2ccc3ccc(Cl)cc3n2)c1 (stereo not drawn) [Ia.38, N-[1-{3-[(E)-2-(7-Chloro-quinolin-2-yl)-vinyl]-phenyl}-3-(2-diethylcarbamoyl-phenyl)-propyl]-phthalamic acid] | 0.3 | 51 | 69
O=C(O)c1ccccc1OCC(OCCc1cccs1)c1cccc(/C=C/c2ccc3ccc(Cl)cc3n2)c1 (stereo not drawn) [Ia.143, 2-[2-{3-[(E)-2-(7-Chloro-quinolin-2-yl)-vinyl]-phenyl}-2-(2-thiophen-2-yl-ethoxy)-ethoxy]-benzoic acid] | 32 | 56 | 74
Cc1oc(=O)oc1COC(=O)c1ccccc1CCC1(c2cccc(/C=C/c3ccc4ccc(Cl)cc4n3)c2)OCCO1 [Ib.11] | 32 | 60 | 74
CC(=O)OC(CSc1ccccc1C(=O)O)c1cccc(/C=C/c2ccc3ccc(Cl)cc3n2)c1 (stereo not drawn) [Ia.118, 2-(2-Acetoxy-2-{3-[(E)-2-(7-chloro-quinolin-2-yl)-vinyl]-phenyl}-ethylsulfanyl)-benzoic acid] | 33 | 46 | 52
CCOC(COc1ccc(OC)cc1C(=O)O)c1cccc(/C=C/c2nc3ccccc3s2)c1 (stereo not drawn) [Ia.192, 2-{2-[3-((E)-2-Benzothiazol-2-yl-vinyl)-phenyl]-2-ethoxy-ethoxy}-5-methoxy-benzoic acid] | 38 | 54 | 74
O=C(N[C@@H](CCc1ccccc1C(=O)O)c1cccc(/C=C/c2ccc3ccc(Cl)cc3n2)c1)c1cccs1 [Ia.69, 2-{(S)-3-{3-[(E)-2-(7-Chloro-quinolin-2-yl)-vinyl]-phenyl}-3-[(thiophene-2-carbonyl)-amino]-propyl}-benzoic acid] | 34 | 56 | 72

Now from value to molecule:

inhibition at 0.001 µM [%] | inhibition at 0.003 µM [%] | inhibition at 0.01 µM [%] | Compound
67 | 78 | 86 | COc1ccc(C=CC2(c3cccc(/C=C/c4ccc5ccc(Cl)cc5n4)c3)OCCO2)c(C(=O)O)c1 [Ib.79]
72 | 86 | 89 | COc1ccc(CCC2(c3cccc(/C=C/c4ccc5ccc(Cl)cc5n4)c3)OCCO2)c(C(=O)O)c1 [Ib.67]
14 | 20 | 60 | C#CCOc1ccc(CCC2(c3cccc(/C=C/c4ccc5ccc(Cl)cc5n4)c3)OCCO2)c(C(=O)O)c1 [Ib.93]
64 | 74 | 97 | O=C(O)c1ccccc1CCC1(c2cccc(/C=C/c3ccc4ccc(Cl)cc4n3)c2)OCCS1 (stereo not drawn) [Ib.59]
58 | 81 | 86 | COc1cc(C(=O)O)c(CCC2(c3cccc(/C=C/c4ccc5ccc(Cl)cc5n4)c3)OCCCO2)cc1[N+](=O)[O-] [Ib.123]
28 | 52 | 82 | O=C(O)c1cc2c(cc1CCC1(c3cccc(/C=C/c4ccc5ccc(Cl)cc5n4)c3)OCCO1)OCCO2 [Ib.139]
15 | 49 | 80 | O=C(O)c1ccc(C(=O)O)c(CCC2(c3cccc(/C=C/c4ccc5ccc(Cl)cc5n4)c3)OCCO2)c1 [Ib.142]
31 | 41 | 49 | O=C(O)c1ccccc1SCC1(c2cccc(/C=C/c3ccc4ccc(Cl)cc4n3)c2)OCCO1 [Ib.42]
56 | 77 | 86 | COc1ccc(CCC2(c3cccc(/C=C/c4ccc5ccc(Cl)cc5n4)c3)OCCO2)c(-c2nnn[nH]2)c1 [Ib.135]
6 | 38 | 53 | CCOc1ccc(CCC2(c3cccc(/C=C/c4ccc5ccc(Cl)cc5n4)c3)OCCO2)c(C(=O)O)c1 [Ib.86]
49 | 91 | 99 | O=C(c1ccccc1CCC1(c2cccc(/C=C/c3ccc4ccc(Cl)cc4n3)c2)OCCO1)N1CCCC1 [Ib.36, {2-[2-(2-{3-[(E)-2-(7-Chloro-quinolin-2-yl)-vinyl]-phenyl}-[1,3]-dioxolan-2-yl)-ethyl]-phenyl}-pyrrolidin-1-yl-methanone]
48 | 68 | 85 | COc1cc(C(=O)O)c(CCC2(c3cccc(/C=C/c4ccc5ccc(Cl)cc5n4)c3)OCCO2)c(OC)c1OC [Ib.113]
